For data set [1], the system named is HUVEC. Put plainly: Inhibition of tube formation in HUVEC at 6.25 uM measured after 24 hrs by Mayers hematoxylin staining based light microscopic analysis relative to control. The conditions noted are these: Homo sapiens. Format: functional.
Data set [2] has as its system MDA-MB-231. Put plainly: Decrease in VEGF expression in human MDA-MB-231 cells after 24 hrs by western blotting method. Format: functional, cell-based. Background: In western blotting, separated proteins are transferred to a membrane and probed.
For data set [3], the system named is HUVEC. Put plainly: Antimigratory activity against HUVEC at 6.25 uM measured after 24 hrs by Mayers hematoxylin and eosin-Y staining based microscopic analysis relative to control. In kind it is functional, Homo sapiens.
Data set [4] relates to MDA-MB-231. Kind of data set: Cytotoxicity against human MDA-MB-231 cells assessed as decrease in cell viability at 200 uM after 24 hrs by MTT assay. In kind it is functional, cell-based.
For data set [5], the target named is Mitogen-activated protein kinase; ERK1/ERK2 (Homo sapiens) (UniProt P27361+P28482). Kind of data set: Decrease in phosphorylated ERK1/2 level in human MDA-MB-231 cells after 24 hrs by western blotting method. Format: cell-based.
Data set [6] has as its system HUVEC. Kind of data set: Cytotoxicity against HUVEC assessed as inhibition of cell proliferation after 24 hrs by MTT assay. The settings on record: human. In kind it is cell-based.
Data set [7] has as its system HUVEC. Put plainly: Cytotoxicity against HUVEC assessed as inhibition of cell proliferation up to 12.5 uM after 24 hrs by MTT assay. Format: cell-based. The settings on record: human.
Data set [8] concerns MDA-MB-231. Kind of data set: Cytotoxicity against human MDA-MB-231 cells assessed as decrease in cell viability at 6.25 to 25 uM after 24 hrs by MTT assay. In kind it is functional, cell-based.
The target in data set [9] is RAC-alpha serine/threonine-protein kinase (Homo sapiens) (UniProt P31749). Put plainly: Decrease in phosphorylated Akt level in human MDA-MB-231 cells after 24 hrs by western blotting method. In kind it is cell-based.

Experimental findings from ChEMBL document CHEMBL3813695, “Assessment of the anti-metastatic properties of sanguiin H-6 in HUVECs and MDA-MB-231 human breast cancer cells” (Bioorg Med Chem Lett, 2016) are described below.

SMILES strings stand for the structures. Calls of active or inactive are those of the source. No cut-off for these calls is given here.

One may read the inhibition as the drop in the measured response relative to a control, in per cent.

Sequence of RAC-alpha serine/threonine-protein kinase (Homo sapiens) (P31749 whole entry): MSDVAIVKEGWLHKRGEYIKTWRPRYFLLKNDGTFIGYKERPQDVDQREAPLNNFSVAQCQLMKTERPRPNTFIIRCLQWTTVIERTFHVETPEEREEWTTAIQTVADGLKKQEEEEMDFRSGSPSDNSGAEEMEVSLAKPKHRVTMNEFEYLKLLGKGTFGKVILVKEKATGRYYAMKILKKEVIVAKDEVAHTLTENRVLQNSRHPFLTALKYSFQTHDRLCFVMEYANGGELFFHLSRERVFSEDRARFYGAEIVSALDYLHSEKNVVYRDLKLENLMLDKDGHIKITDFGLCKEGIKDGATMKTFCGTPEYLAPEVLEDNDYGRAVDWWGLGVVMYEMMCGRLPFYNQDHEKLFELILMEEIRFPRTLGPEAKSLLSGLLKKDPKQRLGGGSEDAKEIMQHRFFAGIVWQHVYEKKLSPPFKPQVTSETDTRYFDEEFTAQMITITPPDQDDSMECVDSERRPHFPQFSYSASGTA
Sequence of Mitogen-activated protein kinase; ERK1/ERK2 (Homo sapiens) (P27361 whole entry, looked up): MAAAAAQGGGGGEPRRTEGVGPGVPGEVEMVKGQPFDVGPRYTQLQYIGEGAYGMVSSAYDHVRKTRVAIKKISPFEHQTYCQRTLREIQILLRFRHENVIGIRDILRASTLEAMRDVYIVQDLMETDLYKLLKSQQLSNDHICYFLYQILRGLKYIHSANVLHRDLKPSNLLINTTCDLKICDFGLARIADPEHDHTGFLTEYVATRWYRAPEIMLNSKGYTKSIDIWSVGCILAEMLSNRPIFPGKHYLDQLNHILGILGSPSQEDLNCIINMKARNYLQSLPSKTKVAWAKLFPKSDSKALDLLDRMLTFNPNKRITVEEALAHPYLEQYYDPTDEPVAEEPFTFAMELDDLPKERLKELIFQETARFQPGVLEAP
Sequence of Mitogen-activated protein kinase; ERK1/ERK2 (Homo sapiens) (P28482 whole entry, looked up): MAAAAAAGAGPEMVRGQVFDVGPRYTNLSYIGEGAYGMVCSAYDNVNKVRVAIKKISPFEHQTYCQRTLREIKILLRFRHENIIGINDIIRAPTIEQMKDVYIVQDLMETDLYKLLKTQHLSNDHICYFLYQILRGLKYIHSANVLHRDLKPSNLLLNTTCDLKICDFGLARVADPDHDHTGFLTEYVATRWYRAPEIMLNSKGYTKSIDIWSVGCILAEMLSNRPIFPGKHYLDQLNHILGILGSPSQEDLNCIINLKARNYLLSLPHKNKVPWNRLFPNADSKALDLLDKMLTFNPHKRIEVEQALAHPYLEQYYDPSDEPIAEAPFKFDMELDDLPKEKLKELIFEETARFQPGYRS

Turning to `O=C(O[C@@H]1O[C@@H]2COC(=O)c3cc(O)c(O)c(O)c3-c3c(cc(O)c(O)c3O)C(=O)O[C@H]2[C@@H]2OC(=O)c3cc(O)c(O)c(O)c3-c3c(cc(O)c(O)c3O)C(=O)O[C@@H]12)c1cc(O)c(O)c(Oc2c(O)c(O)c(O)c3c2C(=O)O[C@H]2[C@@H]4OC(=O)c5cc(O)c(O)c(O)c5-c5c(cc(O)c(O)c5O)C(=O)O[C@H]4[C@@H](OC(=O)c4cc(O)c(O)c(O)c4)O[C@@H]2COC(=O)c2cc(O)c(O)c(O)c2-3)c1`, in the data set with HUVEC [1], the inhibition at 6.25 µM came out at 41.5%. Also, the inhibition result (with MDA-MB-231 [2]; with MDA-MB-231 [4]; in data set [5]; in data set [9]) was “Active” in each case. The Activity in the data set with HUVEC [3] is listed as 37.6%; in the data set on HUVEC [7], “Non-toxic”. The “inhibition (INH)” value with HUVEC [6] is given as “Dose-dependent effect”. Also, the inhibition entry in the data set on MDA-MB-231 [8] was “inactive”.
